Activity calls are given as the source filed them. The rule behind the calls is not given here.
Tests used:
H9c2 [1] = experiment: Antiinflammatory activity in LPS/hypoxia induced CA9 knockdown rat H9c2 cells assessed as decrease in IL-6 protein level at 10 uM by Western blot analysis; assay type: functional, cell-based
Rattus norvegicus = experiment: Antiinflammatory activity against LPS/talc powder induced pericarditic Wistar rat assessed as reduction in torsion T wave inversion at 20 mg/kg, ip pretreated for 2 hrs followed by LPS/tal powder stimulation measured after 48 hrs in presence of 2-(4-(5-oxo-5-((5-sulfamoyl-1,3,4-thiadiazol-2-yl)amino)pentyl)-1H-1,2,3-triazol-1-yl)acetic acid by ECG analysis; assay type: functional, organism-based; conditions: time 50.0 hrs
H9c2 [2] = experiment: Antiinflammatory activity in LPS/hypoxia induced CA9 knockdown rat H9c2 cells assessed as decrease in TNF-alpha protein level at 10 uM by Western blot analysis; assay type: functional, cell-based
H9c2 [3] = experiment: Anti-inflammatory activity in LPS/hypoxia induced rat H9c2 cells assessed as reduction of IL-6 protein expression at 10 uM by Western blot analysis; assay type: functional, cell-based
H9c2 [4] = experiment: Inhibition of intracellular ROS level in LPS/hypoxia induced rat H9c2 cells in presence of 2-(4-(5-oxo-5-((5-sulfamoyl-1,3,4-thiadiazol-2-yl)amino)pentyl)-1H-1,2,3-triazol-1-yl)acetic acid and Na2WO4 by DCFH-DA probe based fluorescence confocal microscopy analysis; assay type: functional, cell-based
[5] = Stability of the compound assessed as NTR (unknown origin) mediated hydrolysis by measuring half life by UV spectrophotometry; assay type: ADME; conditions: human
H9c2 [6] = experiment: Anti-inflammatory activity in LPS/hypoxia induced rat H9c2 cells assessed as reduction of IL-1 beta protein expression at 10 uM by Western blot analysis; assay type: functional, cell-based
H9c2 [7] = experiment: Protection against LPS/ hypoxia induced cell injury in rat H9c2 cells assessed as recovery of cell viability at 1 to 10 uM by CCK-8 assay; assay type: functional, cell-based; conditions: dose 1-10 µM
[8] = Toxicity in Wistar rat assessed as change in BUN level in presence of 2-(4-(5-oxo-5-((5-sulfamoyl-1,3,4-thiadiazol-2-yl)amino)pentyl)-1H-1,2,3-triazol-1-yl)acetic acid; conditions: in vivo
H9c2 [9] = experiment: Protection against LPS/hypoxia induced cell injury in CA9 knockdown rat H9c2 cells assessed as recovery of cell viability at 10 uM by CCK-8 assay; assay type: functional, cell-based
H9c2 [10] = experiment: Anti-inflammatory activity in LPS/hypoxia induced rat H9c2 cells assessed as reduction of IL-6 protein expression at 10 uM in presence of 2-(4-(5-oxo-5-((5-sulfamoyl-1,3,4-thiadiazol-2-yl)amino)pentyl)-1H-1,2,3-triazol-1-yl)acetic acid by Western blot analysis; assay type: functional, cell-based
H9c2 [11] = experiment: Anti-inflammatory activity in rat H9c2 cells assessed as downregulation of cytochrome C expression at 10 uM in presence of 2-(4-(5-oxo-5-((5-sulfamoyl-1,3,4-thiadiazol-2-yl)amino)pentyl)-1H-1,2,3-triazol-1-yl)acetic acid by Western blot analysis; assay type: functional, cell-based

COc1ccc2c(c1)c(CC(=O)O)c(C)n2C(=O)c1ccc(Cl)cc1 [INDOMETHACIN]
Activity (H9c2 [1]): Active
Activity (Rattus norvegicus): Active
Activity (H9c2 [2]): Active
Activity (H9c2 [3]): Active
inhibition (H9c2 [4]): Active
t1/2 [5]: 21.6 min
Activity (H9c2 [6]): Active
Activity (H9c2 [7]): Active
Activity [8]: Toxic
Activity (H9c2 [9]): Active
Activity (H9c2 [10]): Active
Activity (H9c2 [11]): Active
